Data published in patent US8148398B2, “Intermediate duration neuromuscular blocking agents and antagonists thereof” (Cornell Research Foundation, Inc., priority 2006, dated 2012).

Key:
Type in all cases: in vivo
[1] = system: Rhesus monkeys; assay: Reversal of neuromuscular blockade by cysteine plus glutathione in rhesus monkeys (Example 3); details: for time for reversal of the neuromuscular blockade (FIG. 5, as stated in Example 3): combination of cysteine and glutathione
Method: (§1) Rhesus monkeys were anesthetized with ketamine (7.5 mg/Kg) given intramuscularly or intravenously. Anesthesia was maintained with a mixture of isoflurane (1.5%), nitrous oxide (60%) and oxygen (40%). The common peroneal nerve was stimulated supramaximally with square wave pulses of 0.2 m sec duration at a rate of 0.15 Hz. Twitch contractions were recorded via the tendon of the extensor digitorum muscle.
(§2) In all animals, the trachea was intubated and ventilation was controlled at 12-15 ml/kg, 18-24 breaths per minute. A peripheral vein and artery were cannulated for drug administration and for recording of arterial pressure, respectively. In preliminary studies a neuromuscular blocking agent having one of the following structures was administered intravenously.
In studies designed to examine the reversal of the neuromuscular blockade caused by these agents, cysteine and/or glutathione was administered to test animals at selected dosages.
Rhesus monkeys were anesthetized and treated with a neuromuscular blocking agent as described in Example 1.

[2] = system: Rhesus monkeys; assay: Potency and duration of neuromuscular blockade, twitch response in anesthetized rhesus monkeys; details: for spontaneous recovery from neuromuscular blockade / duration of the neuromuscular blockade (FIG. 7): no antagonist; for effective dosage for 50% neuromuscular blockade (dose-response curve) / effective dosage for 95% neuromuscular blockade (dose-response curve): dose-response curve FIG. 3 / FIG. 10; for Potency (ED95 mg/kg) / Duration at 4X ED95 / Duration: rhesus monkeys; for Potency (ED95 mg/kg): intravenous, dose achieving 95% neuromuscular blockade; for Duration at 4X ED95: 4xED95 dosage; for Duration: from injection to 95% twitch recovery
Method: as §1, §2

[3] = system: Rhesus monkeys; assay: Cardiovascular effects (mean arterial pressure, heart rate) of blocking agents in rhesus monkeys; details: for change in heart rate / change in mean arterial pressure: even high dosages, FIG. 8 / FIG. 9; for physiological distress to the circulation in vivo: rhesus monkeys
Method: as §1, §2
Rhesus monkeys were anesthetized and treated with a neuromuscular blocking agent as described in Example 1. FIGS. 8 and 9 provide mean values for the cardiovascular effects of administration of the AV002 and AV001 neuromuscular blocking agents, respectively as a function of dosage.

[4] = system: adult male rhesus monkeys; assay: Reversal of AV002 0.15 mg/kg block by cysteine/glutathione or neostigmine/atropine (Example 5); details: AV002 0.15 mg/kg (3XED95), spontaneous recovery
Method: Anesthesia was induced in adult male rhesus monkeys using 7.5 mg/kg ketamine. Tracheae were intubated using topical anesthetic. Anesthesia was maintained with isoflurane 1-2% and N2O/O2 (60%/40%). ECG, temperature, O2 saturation, and blood pressure were monitored and maintained within normal limits. Mechanomyogram (MMG) recordings were made of twitch responses from the extensor digitorum at 0.15 Hz. A control dose of AV002 (0.15 mg/kg; about 3 times the ED95) was given and animals were allowed to recover spontaneously. Another dose of 0.15 mg/kg of AV002 was given approximately 30 minutes after return of train of four (TOF) to greater than 100%. Reversal of the second dose of AV002 was attempted in four separate groups of animals with either:
1) cysteine 30 mg/kg and glutathione 30 mg/kg at 1 minute after injection of AV002,
2) cysteine 30 mg/kg and glutathione 30 mg/kg at the first sign of recovery of twitch,
3) neostigmine 0.05 mg/kg and atropine 0.03 mg/kg at 1 minute after injection of AV002, or
4) neostigmine 0.05 mg/kg and atropine 0.03 mg/kg at the first sign of recovery of twitch.
Comparative recovery intervals and total duration were analyzed using the student t-test.

[5] = system: neuromuscular blockade; assay: Reversibility of neuromuscular blockade by cysteine-like antagonists (general statements); details: general statement, no method given
[6] = 0.1 mg/kg blocking agent, FIG. 1 / FIG. 4

Compound	spontaneous recovery from neuromuscular blockade [2, 6]	effective dosage for 50% neuromuscular blockade (dose-response curve) [2] [mg/kg]	effective dosage for 95% neuromuscular blockade (dose-response curve) [2] [mg/kg]	Potency (ED95 mg/kg) [2] [mg/kg]	Duration at 4X ED95 [2] [min]	Duration [2] [min]	change in heart rate [3]	change in mean arterial pressure [3]	physiological distress to the circulation in vivo [3]	reversal of the blockade by cysteine-like molecules (cysteine, glutathione) [5]	also measured
COc1cc2c(cc1OC)[C@@H](Cc1cc(OC)c(OC)c(OC)c1)[N@+](C)(CCCOC(=O)/C=C/C(=O)OCCC[N@+]1(C)CCc3cc(OC)c(OC)cc3[C@H]1Cc1cc(OC)c(OC)c(OC)c1)CC2 [AV001]	about 2800 seconds	0.027	0.040	0.04	50 to 60	30 to 40	little or no change	little or no change	no signs of causing physiological distress to the circulation	–	time to reversal of neuromuscular blockade counted from blocking agent administration ([1]; 0.1 mg/kg, 20 mg/kg cysteine + 10 mg/kg glutathione after two minutes): about 475 seconds; recovery from neuromuscular blockade with cysteine plus glutathione, overdose ([1]; 3.0 mg/kg blocking agent, seconds value restated in minutes): about 8.5 min.
COc1ccc(C[C@@H]2c3cc(OC)c(OC)cc3CC[N@@+]2(C)CCCOC(=O)/C=C/C(=O)OCCC[N@+]2(C)CCc3cc(OC)c(OC)cc3[C@H]2Cc2ccc(OC)c(OC)c2)cc1OC [AV002]	about 1600 seconds	0.031	0.045	0.04	30 to 35	20 to 25	little or no change	little or no change	no signs of causing physiological distress to the circulation	–	time for reversal of the neuromuscular blockade (FIG. 5, as stated in Example 3) ([1]; 0.1 mg/kg): about 320 seconds; recovery from neuromuscular blockade with cysteine plus glutathione ([1]; 0.2 mg/kg blocking agent, antagonists at 2 minutes, seconds value restated in minutes): about 7.5 min.; time for reversal of the neuromuscular blockade (FIG. 5, as stated in Example 3) ([1]; 0.2 mg/kg): about 670 seconds; duration of the neuromuscular blockade (FIG. 7) ([2]; 0.1 mg/kg): about 1766 seconds; spontaneous recovery from neuromuscular blockade ([2]; 0.2 mg/kg blocking agent, FIG. 6): about 1730 seconds; spontaneous recovery from neuromuscular blockade ([2]; 0.2 mg/kg blocking agent, seconds value restated in minutes): about 28.8 min.; duration of the neuromuscular blockade (FIG. 7) ([2]; 0.2 mg/kg): about 2150 seconds; potency of trans isomer (AV002) compared with cis isomer (AV003) ([2]; comparison of ED95 values): five times more potent; Recovery Interval (5-95%) (minutes ± SE) [4]: 13.78 ± 1.27 min; Total Duration (inj − 95%) (minutes ± SE) [4]: 30.45 ± 2.24 min
COc1ccc(C[C@H]2c3cc(OC)c(OC)cc3CC[N@@+]2(C)CCCOC(=O)/C=C/C(=O)OCCC[N@+]2(C)CCc3cc(OC)c(OC)cc3[C@@H]2Cc2ccc(OC)c(OC)c2)cc1OC [AV003]	–	–	–	0.20	45 to 60	25 to 40	–	–	–	–	–
COc1ccc(C[C@@H]2c3cc(OC)c(OC)cc3CC[N@+]2(C)CCC(=O)OCCCCCOC(=O)CC[N@@+]2(C)CCc3cc(OC)c(OC)cc3[C@H]2Cc2ccc(OC)c(OC)c2)cc1OC [cisatracurium]	–	–	–	–	–	–	–	–	–	no reversal effect whatsoever	–
COc1cc(CC2c3c(cc(OC)c(OC)c3OC)CC[N+]2(C)CCCOC(=O)CCC(=O)OCCC[N+]2(C)CCc3cc(OC)c(OC)c(OC)c3C2Cc2cc(OC)c(OC)c(OC)c2)cc(OC)c1OC (stereo not drawn) [doxacurium]	–	–	–	–	–	–	–	–	–	no reversal effect whatsoever	–
COc1cc2c(cc1OC)[C@@H](Cc1cc(OC)c(OC)c(OC)c1)[N+](C)(CCCOC(=O)CC/C=C/CCC(=O)OCCC[N+]1(C)CCc3cc(OC)c(OC)cc3[C@H]1Cc1cc(OC)c(OC)c(OC)c1)CC2 (stereo partly drawn) [mivacurium]	–	–	–	–	–	–	–	–	–	no reversal effect whatsoever	–
